ChEMBL document CHEMBL4342519, “Triazolo-Peptidomimetics: Novel Radiolabeled Minigastrin Analogs for Improved Tumor Targeting” (J Med Chem, 2020)
Calls of active or inactive are those of the source. The calls are words filed in the database; no cut-off is given here. *1 amine or outer side, *2 acyl side, *3 side chain or, on linkers, in order; H or OH if unused. Where a SMILES comes first, the peptide text is derived from it. [ ]: non-standard residue; d: D form. The star is where a group is joined. X2 = CCCC[C@@H](C(=O)[*:2])n1cc([C@H](Cc2c[nH]c3ccccc23)N[*:1])nn1; X4 = C[C@H](N[*:1])c1cn([C@@H](Cc2ccc(O)cc2)C(=O)[*:2])nn1; DOTA = O=C(O)CN1CCN(CC(=O)O)CCN(CC(=O)*)CCN(CC(=O)O)CC1; X3 = O=C([C@H](Cc1c[nH]c2ccccc12)n1cc(CN[*:1])nn1)[*:2]; X5 = C[C@@H](C(=O)[*:2])n1cc([C@@H](CCC(=O)O)N[*:1])nn1; X1 = O=C(Cn1cc([C@H](Cc2ccc(O)cc2)N[*:1])nn1)[*:2]; Nle = CCCC[C@H](N)C(=O)O

What was measured:
[1] = Half life in human plasma at 7.5 MBq measured up to 24 hrs at 37 degree C using 177Lu labeled compound by gamma-HPLC analysis; format: ADME, cell-free
[2] = Stability of compound in human plasma at 7.5 MBq assessed as intact compound measured after 24 hrs using 177Lu labeled compound by gamma-HPLC analysis; format: ADME, cell-free; details: for remaining at 24 h, 7.5 MBq: read-out: Stability; for Stability: 24 h
[3] = molecular target: T1, Gastrin/cholecystokinin type B receptor (Homo sapiens) (UniProt P32239); assay: Binding affinity to CCK2R (unknown origin) expressed in human A431 cells assessed as receptor-mediated drug internalization at 5 kBq incubated up to 240 mins using 177Lu labeled compound by gamma counting method relative to control; format: cell-based
T1 sequence (whole entry): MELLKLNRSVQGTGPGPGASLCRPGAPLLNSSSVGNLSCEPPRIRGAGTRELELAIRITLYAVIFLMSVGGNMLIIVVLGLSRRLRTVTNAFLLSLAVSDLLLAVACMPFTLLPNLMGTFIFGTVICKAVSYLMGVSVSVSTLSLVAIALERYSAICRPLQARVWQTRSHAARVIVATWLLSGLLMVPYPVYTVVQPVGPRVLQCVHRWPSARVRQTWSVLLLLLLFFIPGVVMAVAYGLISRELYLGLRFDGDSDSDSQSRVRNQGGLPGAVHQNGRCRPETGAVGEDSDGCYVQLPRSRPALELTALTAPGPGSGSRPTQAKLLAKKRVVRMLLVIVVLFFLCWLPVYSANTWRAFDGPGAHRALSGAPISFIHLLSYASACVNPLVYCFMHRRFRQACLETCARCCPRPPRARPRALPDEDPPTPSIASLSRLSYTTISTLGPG

[4] = molecular target: T2, Gastrin/cholecystokinin type B receptor (Homo sapiens, UniProt P32239); assay: Displacement of [177Lu] PP-F11N from CCK2R (unknown origin) transfected in A431 cells incubated for 1 hr at 4 degree C followed by compound washout with PBS buffer using Lu3+ labeled compound by Cobra-2 gamma counter method; format: cell-based
T2 sequence (P32239 whole entry): T1 sequence (whole entry)

[5] = Lipophilicity, log D of compound in PBS buffer at 0.25 MBq and pH 7.4 using 177Lu labeled compound by shake-flask method; format: physicochemical
[6] = Drug uptake in tumor of CD1 nu/nu mouse xenografted with human A431 cells transfected with CCK2R at 0.5 MBq after 4 hrs using 177Lu labeled compound by Cobra-2 gamma counter method relative to control; format: ADME, tissue-based, Neoplasm
[7] = molecular target: T1, Gastrin/cholecystokinin type B receptor (Homo sapiens); assay: Binding affinity to CCK2R (unknown origin) expressed in human A431 cells assessed as receptor-mediated drug internalization at 5 kBq incubated 4 hrs using 177Lu labeled compound by gamma counting method relative to control; format: cell-based
[8] = molecular target: T1, Gastrin/cholecystokinin type B receptor (Homo sapiens); assay: Potency index, ratio of [Nle15]MG11 IC50 to test compound IC50 for displacement of [177Lu] PP-F11N from CCK2R (unknown origin) transfected in A431 cells incubated for 1 hr at 4 degree C followed by compound washout with PBS buffer using Lu3+ labeled compound by Cobra-2 gamma counter method; format: cell-based
[9] = Ratio of drug uptake in tumor to kidney in CD1 nu/nu mouse xenografted with human A431 cells transfected with CCK2R at 0.5 MBq after 4 hrs using 177Lu labeled compound by Cobra-2 gamma counter method; format: ADME, tissue-based
[10] = Drug uptake in tumor of CD1 nu/nu mouse xenografted with human A431 cells transfected with CCK2R at 0.5 MBq after 1 hr using 177Lu labeled compound by Cobra-2 gamma counter method; format: ADME, tissue-based, Neoplasm
[11] = Drug uptake in tumor of CD1 nu/nu mouse xenografted with human A431 cells transfected with CCK2R at 0.5 MBq after 24 hrs using 177Lu labeled compound by Cobra-2 gamma counter method relative to control; format: ADME, tissue-based, Neoplasm
[12] = Drug recovery in tumor of CD1 nu/nu mouse xenografted with human A431 cells transfected with CCK2R at 0.5 MBq after 24 hrs using 177Lu labeled compound by Cobra-2 gamma counter method relative to control; format: ADME, tissue-based, Neoplasm
[13] = Ratio of half life of compound to [Nle15]MG11 in human plasma at 7.5 MBq measured up to 24 hrs at 37 degree C using 177Lu labeled compound by gamma-HPLC analysis; format: ADME, cell-free
[14] = Drug uptake in tumor of CD1 nu/nu mouse xenografted with human A431 cells transfected with CCK2R at 0.5 MBq, iv after 4 hrs using 177Lu labeled compound by Cobra-2 gamma counter method relative to [Nle15]MG11; format: ADME, organism-based, Neoplasm; details: in vivo
[15] = molecular target: T1, Gastrin/cholecystokinin type B receptor (Homo sapiens); assay: Binding affinity to CCK2R (unknown origin) expressed in human A431 cells assessed as receptor-mediated drug internalization at 5 kBq incubated 2 to 4 hrs using 177Lu labeled compound by gamma counting method relative to control; format: cell-based

Row | half-life at 7.5 MBq [1] [min] | remaining at 24 h, 7.5 MBq [2] [%] | Drug uptake [3] [%] | IC50 [4] [nM] | logD ([5]; PBS buffer, read-out: logD) | Drug uptake [6] | Drug uptake [7] | Ratio IC50 [8] | Ratio [9] | Drug uptake [10] | Drug uptake [11] | Drug recovery [12] [%] | Ratio [13] | Stability [2] | logD ([5]; buffer) | Ratio [14] | fold change (FC) [15] | Compound
1 | 6860 | > 50 | 0.2 | > 50000 | -3.75 | Active | – | – | – | – | – | – | – | – | – | – | – | CCCC[C@H](NC(=O)[C@H](Cc1c[nH]c2ccccc12)NC(=O)CNC(=O)[C@H](Cc1ccc(O)cc1)NC(=O)[C@H](C)NC(=O)[C@@H](CCC(=O)O)NC(=O)CN1CCN(CC(=O)O)CCN(CC(=O)O)CCN(CC(=O)O)CC1)c1cn([C@@H](CC(=O)O)C(=O)N[C@@H](Cc2ccccc2)C(N)=O)nn1
2 | 282 | – | 37.4 | 25.8 | -3.83 | – | – | – | – | – | – | – | – | – | – | – | – | CCCC[C@H](NC(=O)[C@H](Cc1c[nH]c2ccccc12)NC(=O)CNC(=O)C[C@H](Cc1ccc(O)cc1)NC(=O)[C@H](C)NC(=O)[C@@H](CCC(=O)O)NC(=O)CN1CCN(CC(=O)O)CCN(CC(=O)O)CCN(CC(=O)O)CC1)C(=O)N[C@@H](CC(=O)O)C(=O)N[C@@H](Cc1ccccc1)C(N)=O
3 | 2090 | > 50 | 2.5 | 200 | -3.69 | – | – | – | – | – | – | – | – | – | – | – | – | CCCC[C@H](NC(=O)[C@H](Cc1c[nH]c2ccccc12)NC(=O)CNC(=O)[C@H](Cc1ccc(O)cc1)NC(=O)[C@H](C)NC(=O)[C@@H](CCC(=O)O)NC(=O)CN1CCN(CC(=O)O)CCN(CC(=O)O)CCN(CC(=O)O)CC1)C(=O)N[C@@H](CC(=O)O)C(=O)N[C@@H](Cc1ccccc1)c1c[nH]nn1
4 | 510 | – | 44.5 | 18.8 | -3.73 | – | – | – | – | – | – | – | – | – | – | – | – | CCCC[C@H](NC(=O)[C@H](Cc1c[nH]c2ccccc12)NC(=O)CCNC(=O)[C@H](Cc1ccc(O)cc1)NC(=O)[C@H](C)NC(=O)[C@@H](CCC(=O)O)NC(=O)CN1CCN(CC(=O)O)CCN(CC(=O)O)CCN(CC(=O)O)CC1)C(=O)N[C@@H](CC(=O)O)C(=O)N[C@@H](Cc1ccccc1)C(N)=O
5 | 2150 | > 50 | 0.1 | > 50000 | -3.95 | – | – | – | – | – | – | – | – | – | – | – | – | CCCC[C@H](NC(=O)[C@H](Cc1c[nH]c2ccccc12)NC(=O)CNC(=O)[C@H](Cc1ccc(O)cc1)NC(=O)[C@H](C)NC(=O)[C@@H](CCC(=O)O)NC(=O)CN1CCN(CC(=O)O)CCN(CC(=O)O)CCN(CC(=O)O)CC1)C(=O)N[C@@H](CC(=O)O)c1cn([C@@H](Cc2ccccc2)C(N)=O)nn1
6 | 462 | – | 39.6 | 8 | -3.98 | Active | Active | 2 | – | – | – | – | – | – | – | – | – | CCCC[C@H](NC(=O)[C@H](Cc1c[nH]c2ccccc12)NC(=O)CNC(=O)[C@H](Cc1ccc(O)cc1)NC(=O)[C@H](C)n1cc([C@@H](CCC(=O)O)NC(=O)CN2CCN(CC(=O)O)CCN(CC(=O)O)CCN(CC(=O)O)CC2)nn1)C(=O)N[C@@H](CC(=O)O)C(=O)N[C@@H](Cc1ccccc1)C(N)=O ({DOTA}-[X5]YGW[Nle]DF-NH2)
7 | 234 | – | 32.2 | 15.4 | -3.86 | 1.48 % ID/g | 11.7% | – | 1.83 | Active | < 0.9 % ID/g | 34 | – | – | – | – | – | CCCC[C@H](NC(=O)[C@H](Cc1c[nH]c2ccccc12)NC(=O)CNC(=O)[C@H](Cc1ccc(O)cc1)NC(=O)[C@H](C)NC(=O)[C@@H](CCC(=O)O)NC(=O)CN1CCN(CC(=O)O)CCN(CC(=O)O)CCN(CC(=O)O)CC1)C(=O)N[C@@H](CC(=O)O)C(=O)N[C@@H](Cc1ccccc1)C(N)=O ({DOTA}-[dE]AYGW[Nle]DF-NH2)
8 | 21000 | > 50 | 33.1 | 25.4 | -3.98 | Active | Active | – | – | – | – | – | 90 | – | – | – | – | CCCC[C@@H](C(=O)N[C@@H](CC(=O)O)C(=O)N[C@@H](Cc1ccccc1)C(N)=O)n1cc([C@H](Cc2c[nH]c3ccccc23)NC(=O)CNC(=O)[C@H](Cc2ccc(O)cc2)NC(=O)[C@H](C)NC(=O)[C@@H](CCC(=O)O)NC(=O)CN2CCN(CC(=O)O)CCN(CC(=O)O)CCN(CC(=O)O)CC2)nn1 ({DOTA}-[dE]AYG[X2]DF-NH2)
9 | 228 | – | 41.7 | 15.6 | -4 | Active | Active | – | – | – | – | – | – | Unstable | – | – | – | CCCC[C@H](NC(=O)[C@H](Cc1c[nH]c2ccccc12)n1cc(CNC(=O)[C@H](Cc2ccc(O)cc2)NC(=O)[C@H](C)NC(=O)[C@@H](CCC(=O)O)NC(=O)CN2CCN(CC(=O)O)CCN(CC(=O)O)CCN(CC(=O)O)CC2)nn1)C(=O)N[C@@H](CC(=O)O)C(=O)N[C@@H](Cc1ccccc1)C(N)=O ({DOTA}-[dE]AY[X3][Nle]DF-NH2)
10 | 156 | – | 54.3 | 1.7 | – | 3.91 % ID/g | 31% | 10 | 5.81 | Active | Active | 75 | – | Unstable | -4.06 | 2.6 | 2 | CCCC[C@H](NC(=O)[C@H](Cc1c[nH]c2ccccc12)NC(=O)Cn1cc([C@H](Cc2ccc(O)cc2)NC(=O)[C@H](C)NC(=O)[C@@H](CCC(=O)O)NC(=O)CN2CCN(CC(=O)O)CCN(CC(=O)O)CCN(CC(=O)O)CC2)nn1)C(=O)N[C@@H](CC(=O)O)C(=O)N[C@@H](Cc1ccccc1)C(N)=O ({DOTA}-[dE]A[X1]W[Nle]DF-NH2)
11 | 3080 | > 50 | 29.6 | 20.9 | -3.9 | Active | Active | – | – | – | – | – | – | – | – | – | – | CCCC[C@H](NC(=O)[C@H](Cc1c[nH]c2ccccc12)NC(=O)CNC(=O)[C@H](Cc1ccc(O)cc1)n1cc([C@H](C)NC(=O)[C@@H](CCC(=O)O)NC(=O)CN2CCN(CC(=O)O)CCN(CC(=O)O)CCN(CC(=O)O)CC2)nn1)C(=O)N[C@@H](CC(=O)O)C(=O)N[C@@H](Cc1ccccc1)C(N)=O ({DOTA}-[dE][X4]GW[Nle]DF-NH2)
